From the PolyMetriX glass transition set
± gives the standard deviation of the reports.

SMILES	glass transition temperature [°C]
*/C=C/C1CC(*)C(C#N)([Si](C)(C)O[Si](C)(C)C)C1 (repeat unit)	88.00
*CC(O*)c1ccccc1 (repeat unit)	34.00
*Oc1ccc(NC(=O)c2ccc(C(=O)Nc3ccc(Oc4ccc(C5(c6ccc(*)cc6)C6CC7CC(C6)CC5C7)cc4)cc3)c3ccccc23)cc1 (repeat unit)	269.00
*CC(*)CCCCCCCCCCCC (repeat unit)	10.00
*CC(*)(C)C(=O)OCc1ccc2c(c1)c1ccccc1n2CCCCCCCCCCCCCCCC (repeat unit)	23.00
*C(=O)c1ccc(Oc2ccc(N3C(=O)c4ccc(*)cc4C3=O)cc2)cc1 (repeat unit)	297.00
*Oc1ccc(CC(NC(=O)CCc2ccc(OC(=O)CCC(*)=O)cc2)C(=O)OCC(C)C)cc1 (repeat unit)	75.00
*Nc1ccccc1CCc1ccc(NC(*)=O)cc1 (repeat unit)	198.00
*=Nc1ccc(Cc2ccc(NC(=*)CCC)cc2)cc1 (repeat unit)	110.00
*O[Si](*)(C)CCCOc1ccc(/N=N/c2ccc(S(=O)(=O)O)cc2)cc1 (repeat unit)	9.20
*Oc1ccc(S(=O)(=O)c2ccc(Oc3ccc(Cc4ccc(*)cc4)cc3)cc2)cc1 (repeat unit)	189.6
*Oc1c(-c2ccccc2)cc(*)cc1-c1cccc2ccccc12 (repeat unit)	234.00
*CC(*)(C)C(=O)OCCCCCCOc1ccc(C(=O)Oc2ccc(/N=N/c3ccc(Br)cc3)c3ccccc23)cc1 (repeat unit)	46.00
*[CH2][Ge]([CH3])([CH3])[CH2]c1cocc1* (repeat unit)	-28.00
*C(=O)Nc1ccc(C(c2ccc(NC(=O)c3ccc4c(c3)C(=O)N(c3c(C)cc(-c5cc(C)c(N6C(=O)c7ccc(*)cc7C6=O)c(C)c5)cc3C)C4=O)cc2)(C(F)(F)F)C(F)(F)F)cc1 (repeat unit)	318.00
*CC(*)(C)CC (repeat unit) [Poly(2-methylbutene)]	-11.58 ± 9.3
*c1ccc(C2(c3ccc(N4C(=O)c5ccc(S(=O)(=O)c6ccc7c(c6)C(=O)N(*)C7=O)cc5C4=O)cc3)c3ccccc3-c3ccccc32)cc1 (repeat unit)	392.00
*c1ccc(OC(=O)c2cccc(C(=O)Oc3ccc(C4(*)NC(=O)c5ccccc54)cc3)c2)cc1 (repeat unit)	325.00
*CC(*)OC(=O)c1nn(C(C)=O)c2ccccc12 (repeat unit)	150.00
*CC(*)(C)C(=O)OCC1COCCOCCOCCOCCOC1 (repeat unit)	31.00
*OC(F)(C(*)(F)F)C(F)(F)F (repeat unit)	-73.00
*c1ccc(NC(=O)CCCCC(=O)Nc2ccc(S(*)(=O)=O)cc2)cc1 (repeat unit)	194.00
*Oc1ccc(C(=O)c2cccc(C(=O)c3ccc(Oc4ccc(Cc5ccc(*)cc5)cc4)cc3)c2)cc1 (repeat unit)	145.00

SMILES	glass transition temperature [°C]
*c1ccc(Oc2ccc(-c3nc4ccc(Oc5ccc6nc(*)c(-c7ccccc7)nc6c5)cc4nc3-c3ccccc3)cc2)cc1 (repeat unit)	437.00
*C(=O)NC1CCC(CC2CCC(NC(=O)c3ccc(N4C(=O)c5ccc(*)cc5C4=O)cc3)CC2)CC1 (repeat unit)	275.00
*CCOc1ccc(C2(c3ccc(OCCO[Si](O*)(c4ccccc4)c4ccccc4)cc3)c3ccccc3-c3ccccc32)cc1 (repeat unit)	97.00
*C(=O)OCCOCCOC(=O)c1ccc(N2C(=O)c3ccc(*)cc3C2=O)cc1 (repeat unit)	101.00
*c1ccc(-c2ccc(NC(=O)c3cccc(C(=O)Nc4ccc(-c5ccc(N6C(=O)c7ccc(-c8ccc9c(c8)C(=O)N(*)C9=O)cc7C6=O)cc5)cc4)c3)cc2)cc1 (repeat unit)	230.00
*Oc1ccc(S(=O)(=O)c2ccc(*)cc2)cc1 (repeat unit)	225.00
*CC(*)(C)C(=O)OCCOCC[N+](CC)(CC)CCCCS(=O)(=O)O (repeat unit)	95.00
*OP(=O)(Oc1ccc(NC(=O)Oc2ccc(C(C)(C)c3ccc(OC(=O)Nc4ccc(*)cc4)cc3)cc2)cc1)c1ccccc1 (repeat unit)	34.00
*C(=O)c1ccc2c(c1)C(=O)N(c1ccc(Oc3ccc(C(C)(C)c4ccccc4)cc3)c(N3C(=O)c4ccc(*)cc4C3=O)c1)C2=O (repeat unit)	267.00
*c1ccc2c(c1)C(=O)N(c1cc(N3C(=O)c4ccc(C(*)(C(F)(F)F)C(F)(F)F)cc4C3=O)ccc1OCCCCCCOc1ccc(/N=N/c3ccc(OCC)cc3)cc1)C2=O (repeat unit)	198.00
*c1ccc(Oc2ccc(N3C(=O)c4cccc(Oc5ccc(S(=O)(=O)c6ccc(Oc7cccc8c7C(=O)N(*)C8=O)cc6)cc5)c4C3=O)cc2)cc1 (repeat unit)	267.00
*c1ccc2c(c1)C(=O)N(c1cccc(C(c3ccccc3)(c3cccc(N4C(=O)c5ccc(C(*)(C(F)(F)F)C(F)(F)F)cc5C4=O)c3)C(F)(F)F)c1)C2=O (repeat unit)	305.00
*CC(*)CCCCCCCCCI (repeat unit)	-6.00
*c1cccc(C(O[Si](C)(C)O[Si](C)(C)O[Si](C)(C)C)c2cccc(N3C(=O)c4ccc(Oc5ccc6c(c5)C(=O)N(*)C6=O)cc4C3=O)c2)c1 (repeat unit)	219.00
*Oc1ccc(CC(NC(=O)Cc2ccc(OC(=O)COCCOCC(*)=O)cc2)C(=O)OCCCCCCCC)cc1 (repeat unit)	23.00
*CCCCCCSS* (repeat unit)	-74.00
*CC(*)(C)C(=O)OCC(O)CO (repeat unit)	84.40
*c1ccc(*)cc1 (repeat unit) [Poly(1,4-phenylene)]	278.18 ± 19
*c1ccc(C(=O)OCCCCCCCCOc2ccc(/C=C3\CCC/C(=C\c4ccc(OCCCCCCCCOC(=O)c5ccc(-c6nnc(*)o6)cc5)cc4)C3=O)cc2)cc1 (repeat unit)	59.00
*CC(*)c1cc(C(=O)OCC)ccc1-c1ccc(OCCCCCCCC)cc1 (repeat unit)	95.00
*C(=O)NCCCCCCNC(=O)c1ccc(N2C(=O)c3ccc(*)cc3C2=O)cc1 (repeat unit)	225.00
*OP(=O)(Oc1ccccc1)Oc1c(Cl)c(Cl)c(*)c(Cl)c1Cl (repeat unit)	79.00
*C([2H])([2H])C(*)(C(=O)OC([2H])([2H])C([2H])([2H])[2H])C([2H])([2H])[2H] (repeat unit)	94.00

SMILES	glass transition temperature [°C]
*c1ccc(NC(=O)CCCCCCCCCCC(=O)Nc2ccc(S(*)(=O)=O)cc2)cc1 (repeat unit)	160.00
*CCCCP(C)(=O)CCCNC(=O)CCCCC(=O)N* (repeat unit)	59.00
*Oc1ccc(CC(NC(=O)CCc2ccc(OC(=O)CCCCCCCCC(*)=O)cc2)C(=O)OCCCCCCCC)cc1 (repeat unit)	15.50
*Oc1ccc(Oc2ccc(C(=O)c3cccc(NC(=O)c4ccc(C(=O)Nc5cccc(C(=O)c6ccc(*)cc6)c5)cc4)c3)cc2)cc1 (repeat unit)	210.00
*/C=C/c1cc(OCC(CC)CCCC)c(*)cc1-c1ccc(N(c2ccc(OC)cc2)c2ccc(OC)cc2)cc1 (repeat unit)	163.00
*c1cc(C)c(Oc2ccc(S(=O)(=O)c3ccc(Oc4cc(C)c(C5(*)OC(=O)c6ccccc65)cc4C)cc3)cc2)cc1C (repeat unit)	269.00
*c1ccc(-c2cc(C(C)(C)C)c(Oc3ccc(N4C(=O)c5ccc(S(=O)(=O)c6ccc7c(c6)C(=O)N(*)C7=O)cc5C4=O)cc3C(F)(F)F)c(C(C)(C)C)c2)cc1 (repeat unit)	365.50
*c1ccc2c(c1)C(=O)N(c1cc(OCCCC)cc(N3C(=O)c4ccc(C(*)(C(F)(F)F)C(F)(F)F)cc4C3=O)c1)C2=O (repeat unit)	246.00
*Nc1cc(NC(=O)Nc2ccc(NC(*)=O)cc2)cc(C(=O)Nc2cccc3c2C(=O)c2ccccc2C3=O)c1 (repeat unit)	190.00
*CCCCCCOc1ccc(-c2ccc(O*)c3ccccc23)c2ccccc12 (repeat unit)	109.00
*CC(C)(CO*)COCCC#N (repeat unit)	-52.00
*C(=O)Nc1ccc(S(=O)(=O)c2ccc(NC(=O)c3ccc4c(c3)C(=O)N(c3ccc(NC(=O)Nc5ccc(N6C(=O)c7ccc(*)cc7C6=O)cc5)cc3)C4=O)cc2)cc1 (repeat unit)	205.00
*CC(*)c1nnn[nH]1 (repeat unit)	72.00
*Oc1ccc(-c2ccc(-c3ccc(Oc4ccc(C(C)(C)c5ccc(*)cc5)cc4)c(C(F)(F)F)c3)cc2)cc1C(F)(F)F (repeat unit)	192.00
*Oc1ccc(C(C)(C)c2ccc(OC(=O)c3ccc(Oc4ccc(C(*)=O)cc4)cc3)cc2)cc1 (repeat unit)	220.00
*CC(CO)(CO)CO* (repeat unit)	99.00
*[Si](*)(C)CCCOCC1COC(C)(C)O1 (repeat unit)	-48.00
*Oc1ccc(Oc2ccc(C(=O)c3ccc(C(=O)c4ccc(*)cc4)c4ccccc34)cc2)cc1 (repeat unit)	200.03
*Oc1ccc(C(C)(c2ccccc2)c2ccc(Oc3ccc(C(=O)C(=O)c4ccc(*)cc4)cc3)cc2)cc1 (repeat unit)	177.00
*C(*)O (repeat unit)	134.00
*Oc1ccc(Oc2ccc(C(=O)c3ccc(-c4ccc(C(=O)c5ccc(*)cc5)cc4)cc3)cc2)cc1-c1ccc(S(=O)(=O)O)c(C)c1 (repeat unit)	182.00
*c1ccc(C(=O)NNC(=O)c2ccc(C(=O)NNC(=O)c3ccc(C4(*)OC(=O)c5ccccc54)cc3)cc2)cc1 (repeat unit)	237.00
